# Data reported in patent publication US20250186558A1, “FORMULATIONS COMPRISING ACID-NEUTRALIZING POLYMER FOR ORAL ADMINISTRATION OF ACTIVE AGENTS” (Entera Bio Ltd., priority 2022, published 2025).
# Assays:
# [1] = pH upon addition of test substance to 0.1 M HCl solution (pH 1.2), pH meter; type: physicochemical
# Protocol: The solution pH was determined using an MP-103 pH-meter (MRC, Israel) equipped with ELC-10-00 electrode (MRC, Israel) or with a thin electrode HI1083 (HANNA instruments Inc.), shortly after dissolution and up to 26 hours later in order to ensure that the pH remained stable. The highest pH value obtained during the experimental time period was recorded in order to compare the acid-neutralizing capacity of each substance.
# SNAC and the basic polymers sodium alginate, sodium carboxymethylcellulose in non-crosslinked (Na-CMC) and crosslinked (croscarmellose sodium, CCS) forms, and sodium starch glycolate (SSG) were dissolved in various volumes of 0.1 M HCl solution (pH 1.2) at concentrations of 1, 2, 4, 10, 20, 50, 100 and 150 mg/ml, and the solution pH was determined using an MP-103 pH-meter (MRC, Israel) equipped with ELC-10-00 electrode (MRC, Israel), as described in the Materials and Methods section hereinabove.
# In order to obtain a beneficial rise in pH with a reduced loss of the active form of the absorption enhancer, the effect of various concentrations of different polymers containing carboxylate groups (sodium alginate, sodium starch glycolate, sodium carboxymethylcellulose, and croscarmellose sodium) on pH upon addition to a 0.1 M HCl solution (pH 1.2) was also evaluated. FIG. 3A presents pH values determined using an MP-103 pH-meter (MRC, Israel) equipped with ELC-10-00 electrode (MRC, Israel) and FIG. 3B presents pH values determined using an MP-103 pH-meter (MRC, Israel) equipped with a thin electrode HI1083 (HANNA instruments Inc.).
# [2] = test system: pepsin; test: Effect of pH on proteolysis of hPTH(1-34) by pepsin; type: in vitro ADME; conditions: 37° C., 3 minutes, media pH 2, 4, 5, 6, 7
# Protocol: The effect of pH on peptide proteolysis by pepsin was determined by incubating 13.5 µg/ml human parathyroid hormone (1-34) (hPTH(1-34)) with 150 µg/ml pepsin, at various pH values, and determining the percentage of hPTH(1-34) which remained. The amount of hPTH(1-34) remaining upon addition to 150 µg/ml pepsin at 37° C. was determined in media with different pH values, followed by immediate (10 second) vortex and centrifugation for 3 minutes at 4° C., 4000 RCF. The following media were used: simulated gastric fluid (pH 2), prepared from 0.01 M HCl and NaCl; phthalate buffer (pH 4 or 5); and phosphate buffer (pH 6 or 7).
# [3] = Teduglutide plasma concentration after oral mini-tablets with SNAC and SSG in rats; type: in vivo, male Sprague-Dawley (SD) rats; conditions: mini-tablets: 0.7 mg teduglutide (2.34 mg/Kg), 15 mg SNAC, 5.33 mg SSG; male SD rats, n=7
# Protocol: A formulation was prepared with 0.7 mg teduglutide (2.34 mg/Kg), 15 mg SNAC, 0.2 mg stearate and 5.33 mg SSG. […] Afterwards, mini-tablets were prepared from the mixes using a 2 mm punch and die set at 1 ton/cm^2.
# The study was conducted in 7 male Sprague-Dawley (SD) rats weighing about 299 grams (290-320 grams). Animals were deprived of food 12-15 hours prior to administration. Water supply was removed one hour before administration and returned one hour post-administration. The mini-tablets were administered by a flexible intragastric gavage with a tip adapted for solid dosage forms administration, without the aid of water.
smiles,measurement,setting,value
"O=C(O)CCCCCCCNC(=O)c1ccccc1O [SNAC, sodium 8-N-(2-hydroxybenzoyl)aminocaprylate]",pH 5 minutes after dissolution,[1]; 10 mg/ml SNAC added to HCl solution (pH 1.2),about 1.5
same,pH 5 minutes after dissolution,[1]; 20 mg/ml SNAC added to HCl solution (pH 1.2),6.5
same,pH 5 minutes after dissolution,[1]; 100 mg/ml SNAC added to HCl solution (pH 1.2),about 7.5
CC[C@H](C)[C@H](NC(=O)[C@H](CCC(=O)O)NC(=O)[C@H](CO)NC(=O)[C@@H](NC(=O)[C@@H](N)CO)C(C)C)C(=O)N[C@@H](CCC(N)=O)C(=O)N[C@@H](CC(C)C)C(=O)N[C@@H](CCSC)C(=O)N[C@@H](Cc1cnc[nH]1)C(=O)N[C@@H](CC(N)=O)C(=O)N[C@@H](CC(C)C)C(=O)NCC(=O)N[C@@H](CCCCN)C(=O)N[C@@H](Cc1cnc[nH]1)C(=O)N[C@@H](CC(C)C)C(=O)N[C@@H](CC(N)=O)C(=O)N[C@@H](CO)C(=O)N[C@@H](CCSC)C(=O)N[C@@H](CCC(=O)O)C(=O)N[C@@H](CCCN=C(N)N)C(=O)N[C@H](C(=O)N[C@@H](CCC(=O)O)C(=O)N[C@@H](Cc1c[nH]c2ccccc12)C(=O)N[C@@H](CC(C)C)C(=O)N[C@@H](CCCN=C(N)N)C(=O)N[C@@H](CCCCN)C(=O)N[C@@H](CCCCN)C(=O)N[C@@H](CC(C)C)C(=O)N[C@@H](CCC(N)=O)C(=O)N[C@@H](CC(=O)O)C(=O)N[C@H](C(=O)N[C@@H](Cc1cnc[nH]1)C(=O)N[C@@H](CC(N)=O)C(=O)N[C@@H](Cc1ccccc1)C(=O)O)C(C)C)C(C)C [hPTH(1-34)],proteolysis of hPTH(1-34) by pepsin as a function of pH,[2],inhibited when the pH increased to about pH 6 or higher
CC[C@H](C)[C@H](NC(=O)[C@H](Cc1ccccc1)NC(=O)[C@H](CC(=O)O)NC(=O)[C@H](CCCNC(=N)N)NC(=O)[C@H](C)NC(=O)[C@H](C)NC(=O)[C@H](CC(C)C)NC(=O)[C@H](CC(N)=O)NC(=O)[C@H](CC(=O)O)NC(=O)[C@H](CC(C)C)NC(=O)[C@@H](NC(=O)[C@@H](NC(=O)[C@H](CC(N)=O)NC(=O)[C@H](CCSC)NC(=O)[C@H](CCC(=O)O)NC(=O)[C@H](CC(=O)O)NC(=O)[C@H](CO)NC(=O)[C@H](Cc1ccccc1)NC(=O)[C@H](CO)NC(=O)CNC(=O)[C@H](CC(=O)O)NC(=O)CNC(=O)[C@@H](N)Cc1c[nH]cn1)[C@@H](C)O)[C@@H](C)CC)C(=O)N[C@@H](CC(N)=O)C(=O)N[C@@H](Cc1c[nH]c2ccccc12)C(=O)N[C@@H](CC(C)C)C(=O)N[C@H](C(=O)N[C@@H](CCC(N)=O)C(=O)N[C@H](C(=O)N[C@@H](CCCCN)C(=O)N[C@H](C(=O)N[C@H](C(=O)N[C@@H](CC(=O)O)C(=O)O)[C@@H](C)O)[C@@H](C)CC)[C@@H](C)O)[C@@H](C)CC [teduglutide],teduglutide plasma concentrations as a function of time after oral administration,[3],enable oral delivery of teduglutide
